{
  "source": "patent US20030104975A1",
  "about": "“Cofactor-based screening method for nuclear receptor modulators and related modulators” (priority 2001, published 2003)",
  "key": {"PPARγ DE / p300Nt-GST": {"molecular_target": "T1, PPARγ DE / p300Nt-GST (Homo sapiens, UniProt P37231)", "T1 construct": "made in house; host or cells: E. coli BL21 (DE3) for PPARgamma, pET15b; E. coli for the GST fusion, pGex4-T1", "T1 sequence (Q09472 2-516 partner limits assumed, one chain of several)": "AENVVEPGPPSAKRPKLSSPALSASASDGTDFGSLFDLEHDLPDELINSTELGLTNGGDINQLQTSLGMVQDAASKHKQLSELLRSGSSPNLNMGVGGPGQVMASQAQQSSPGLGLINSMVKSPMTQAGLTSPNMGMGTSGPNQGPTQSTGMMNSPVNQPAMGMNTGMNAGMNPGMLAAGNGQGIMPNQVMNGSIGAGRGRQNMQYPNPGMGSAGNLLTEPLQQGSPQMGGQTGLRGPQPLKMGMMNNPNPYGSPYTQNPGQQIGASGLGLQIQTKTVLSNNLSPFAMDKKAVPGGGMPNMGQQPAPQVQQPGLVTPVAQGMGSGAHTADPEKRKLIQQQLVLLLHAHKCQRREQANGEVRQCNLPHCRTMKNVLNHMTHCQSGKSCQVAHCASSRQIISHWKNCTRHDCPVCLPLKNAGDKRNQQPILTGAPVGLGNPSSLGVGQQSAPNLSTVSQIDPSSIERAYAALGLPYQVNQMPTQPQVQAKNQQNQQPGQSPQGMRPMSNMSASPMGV", "test": "GST pull-down assay, PPARγ DE with p300Nt-GST", "type": "binding", "details": "anti-histidine blot, rosiglitazone 10^-4 M, FMOC-L-Leu 10^-3 M, compared to DMSO", "description": "(§1) The beads were then washed and the samples separated on SDS-PAGE. Blots were developed with anti-histidine antibodies.\n(§2) Production of proteins. The p300Nt-GST, SRC-1-GST and TIF2-GST fusion proteins were generated by cloning the N-terminal part of the cDNA coding for the p300 protein (amino acids 2 to 516), the region comprised between amino acids 568 and 780 of SRC-1 (SEQ ID NO: 03), and the domain between amino acids 618 and 826 of TIF2 (SEQ ID NO: 01), respectively, downstream of the glutathione-S-transferase (GST) protein in the pGex4-T1 vector (Pharmacia, Orsay, France). The fusion proteins were then expressed in E. coli and purified on a glutathione affinity matrix (Pharmacia). 6×-histidine-tagged human PPAR-gamma LBD (residues 203-477 of SEQ ID NO: 06) was overproduced in E. coli BL21 (DE3) using the pET15b as an expression plasmid (Novagen, Madison, Wis.) and purified by metal ion affinity chromatography on a Co^2+-loaded HiTrap Chelating column (Pharmacia Biotech, Peapack, N.J.) followed by gel filtration chromatography on a HiLoad Supcrdex 100 column (Pharmacia). The protein concentration was determined by the Bradford method (1976, Anal Biochem 72, 248-254).\n(§3) Pull-down experiments. […] The beads were then washed 4 times with pull-down buffer and boiled in 4×-sample buffer. The samples were separated by 12% acrylamide SDS-PAGE and transferred to nitrocellulose membranes."}, "[1]": {"molecular_target": "T2, PPARγ DE/SRC-1-GST complexes (Homo sapiens, UniProt P37231)", "T2 sequence (P37231 203-477 isoform P37231-2)": "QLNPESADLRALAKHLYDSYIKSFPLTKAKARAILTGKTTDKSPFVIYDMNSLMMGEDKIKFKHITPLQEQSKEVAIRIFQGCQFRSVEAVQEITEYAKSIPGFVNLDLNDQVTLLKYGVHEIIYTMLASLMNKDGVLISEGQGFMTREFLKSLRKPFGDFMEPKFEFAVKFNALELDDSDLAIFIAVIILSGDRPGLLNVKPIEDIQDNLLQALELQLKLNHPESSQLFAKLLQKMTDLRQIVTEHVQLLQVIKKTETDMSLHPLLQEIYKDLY", "details": "GST pull-down, anti-histidine blot; rosiglitazone 10^-4 M, FMOC-L-Leu 10^-3 M; compared to DMSO", "description": "as §1, §2, §3"}, "PPARγ DE / TIF2-GST": {"molecular_target": "T3, PPARγ DE / TIF2-GST (Homo sapiens, UniProt P37231)", "T3 construct": "made in house; host or cells: E. coli BL21 (DE3) for PPARgamma, pET15b; E. coli for the GST fusion, pGex4-T1", "T3 sequence (P37231 203-477 isoform P37231-2)": "T2 sequence (P37231 203-477 isoform P37231-2)", "test": "GST pull-down assay, PPARγ DE with TIF2-GST", "type": "binding", "details": "anti-histidine blot, rosiglitazone 10^-4 M, FMOC-L-Leu 10^-3 M, compared to DMSO", "description": "as §1, §2, §3"}, "BDGal4-hPPARγ DE / TIF2": {"molecular_target": "T4, BDGal4-hPPARγ DE / TIF2 (Homo sapiens, UniProt P37231)", "T4 construct": "expressed in transfected cells; host or cells: RK13 cells (ATCC)", "T4 sequence (P37231 238-503 limits assumed)": "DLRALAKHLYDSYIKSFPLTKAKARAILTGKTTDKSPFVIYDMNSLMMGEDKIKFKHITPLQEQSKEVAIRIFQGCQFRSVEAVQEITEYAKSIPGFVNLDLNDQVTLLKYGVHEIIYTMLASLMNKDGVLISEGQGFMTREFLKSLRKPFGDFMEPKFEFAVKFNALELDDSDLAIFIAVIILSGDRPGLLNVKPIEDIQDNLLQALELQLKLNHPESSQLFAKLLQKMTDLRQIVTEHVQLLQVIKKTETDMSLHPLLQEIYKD", "test": "Mammalian two-hybrid assay in RK13 cells, Gal4-hPPARγ DE with TIF2", "type": "cell-based", "details": "24 h, FMOC-L-Leu 10^-5M, rosiglitazone 10^-7M", "method": "(§4) FIG. 2: Interactions between PPAR-gamma and cofactors in cultured mammalian cells. Mammalian two-hybrid interaction between PPAR-gamma and the various co-activators in RK13 cells co-transfected with an expression vector for BDGal4-hPPARγ DE, pGL3-(Gal4)5TKLuc reporter construct, pCMV-βGal, as a control of transfection efficiency, and different expression vectors for different cofactors. Cells were grown during 24 h in the presence or absence of the indicated compound. Luciferase activity has been normalized. […] Each point was performed in triplicate. Bars not sharing similar superscripts are statistically different from each other (P<0.05, Fisher's Post-hoc analysis of 2×2 ANOVA with ligands and constructs as factors).\n(§5) RK-13 cells were obtained from ATCC (Rockville, Md.). Cells were maintained in Dulbecco's modified Eagle's minimal essential medium (DMEM) supplemented with 10% fetal calf serum (FCS), L-glutamine, and antibiotics. Transfection studies with luciferase (luc.) reporter constructs were carried out as described previously (Oberfield et al., 1999, Proc Natl. Acad Sci USA 96, 6102-6106). The pGL3-(Gal4)5TKLuc reporter constructs are described elsewhere (Gelman et al., 1999, J. Biol. Chem. 274, 7681-7688). […]"}, "BDGal4-hPPARγ DE / SRC-1": {"molecular_target": "T5, BDGal4-hPPARγ DE / SRC-1 (Homo sapiens, UniProt P37231)", "T5 construct": "expressed in transfected cells; host or cells: RK13 cells (ATCC)", "T5 sequence (Q15788 whole entry partner, one chain of several, the tested form may be a part)": "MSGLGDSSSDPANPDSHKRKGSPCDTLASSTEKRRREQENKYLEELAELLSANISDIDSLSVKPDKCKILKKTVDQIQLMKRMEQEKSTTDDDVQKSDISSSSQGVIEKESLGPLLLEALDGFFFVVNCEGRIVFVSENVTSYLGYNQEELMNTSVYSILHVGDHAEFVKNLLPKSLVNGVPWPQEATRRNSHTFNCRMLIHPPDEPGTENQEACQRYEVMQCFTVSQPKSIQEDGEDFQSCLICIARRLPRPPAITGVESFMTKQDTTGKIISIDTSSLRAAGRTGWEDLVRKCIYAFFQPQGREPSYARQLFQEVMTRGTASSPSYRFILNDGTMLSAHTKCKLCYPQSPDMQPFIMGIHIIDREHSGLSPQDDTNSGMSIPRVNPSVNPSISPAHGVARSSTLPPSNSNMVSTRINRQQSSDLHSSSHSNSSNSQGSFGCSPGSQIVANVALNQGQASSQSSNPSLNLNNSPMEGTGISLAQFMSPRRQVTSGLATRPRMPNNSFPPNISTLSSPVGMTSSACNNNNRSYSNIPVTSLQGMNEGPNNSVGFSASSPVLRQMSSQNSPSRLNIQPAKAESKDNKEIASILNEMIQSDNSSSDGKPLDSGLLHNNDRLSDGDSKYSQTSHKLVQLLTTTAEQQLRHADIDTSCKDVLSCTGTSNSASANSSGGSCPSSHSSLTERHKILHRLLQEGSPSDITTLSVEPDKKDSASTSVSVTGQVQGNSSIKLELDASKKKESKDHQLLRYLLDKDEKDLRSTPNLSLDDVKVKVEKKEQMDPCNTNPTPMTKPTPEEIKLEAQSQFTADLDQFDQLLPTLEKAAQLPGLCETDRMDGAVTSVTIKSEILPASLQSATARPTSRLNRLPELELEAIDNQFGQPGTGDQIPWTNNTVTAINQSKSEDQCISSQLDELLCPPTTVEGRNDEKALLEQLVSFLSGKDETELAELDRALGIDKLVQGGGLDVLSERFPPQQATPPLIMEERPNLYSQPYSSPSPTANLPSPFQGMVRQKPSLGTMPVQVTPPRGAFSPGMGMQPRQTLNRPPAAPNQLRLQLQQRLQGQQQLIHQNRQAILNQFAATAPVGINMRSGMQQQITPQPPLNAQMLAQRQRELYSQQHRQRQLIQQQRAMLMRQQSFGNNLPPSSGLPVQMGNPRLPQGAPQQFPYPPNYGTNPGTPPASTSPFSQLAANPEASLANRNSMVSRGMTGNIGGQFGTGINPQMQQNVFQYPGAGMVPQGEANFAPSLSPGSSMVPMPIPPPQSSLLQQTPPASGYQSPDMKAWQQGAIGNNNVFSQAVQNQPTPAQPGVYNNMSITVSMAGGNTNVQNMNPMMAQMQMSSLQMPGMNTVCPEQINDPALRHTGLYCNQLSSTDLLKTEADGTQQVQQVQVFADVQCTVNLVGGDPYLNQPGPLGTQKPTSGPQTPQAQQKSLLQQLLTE", "test": "Mammalian two-hybrid assay in RK13 cells, Gal4-hPPARγ DE with SRC-1", "type": "cell-based", "details": "24 h, FMOC-L-Leu 10^-5M", "method": "as §4, §5"}, "BDGal4-hPPARγ DE / p300": {"molecular_target": "T6, BDGal4-hPPARγ DE / p300 (Homo sapiens, UniProt P37231)", "T6 construct": "expressed in transfected cells; host or cells: RK13 cells (ATCC)", "T6 sequence (P37231 238-503 limits assumed)": "T4 sequence (P37231 238-503 limits assumed)", "test": "Mammalian two-hybrid assay in RK13 cells, Gal4-hPPARγ DE with p300", "type": "cell-based", "details": "24 h, FMOC-L-Leu 10^-5M", "method": "as §4, §5"}, "3T3-L1 cells": {"test_system": "3T3-L1 cells", "test": "3T3-L1 adipocyte differentiation assay", "type": "cell-based, murine", "details": "FMOC-L-Leu 10^-5 M", "method": "A: Expression of adipocyte markers during differentiation of 3T3-L1 cells treated with different PPAR-gamma agonists. Confluent 3T3-L1 cells were incubated with 2 μM insulin, 1 μM dexamethasone, and 0.25 mM isobuthyl methyl xanthine for two days. […] RNA was isolated from 3T3-L1 cells after different times of differentiation induction. Blots were hybridized with DNA probes that specifically bind to 36B4 (to control for RNA loading), lipoprotein lipase (LPL), or aP2.\nCells were stained with Oil Red O after 6 days of treatment.\n3T3-L1 cells (ATCC, Rockville, Md.) were grown to confluence in medium A (Dulbecco's modified Eagle's Medium with 10% fetal calf serum, 100 units/ml penicillin, and 100 μg/ml streptomycin). Confluent cell were incubated in medium A containing 2 μM insulin, 1 μM dexamethasone, and 0.25 mM isobuthyl methyl xanthine for two days. Then, the cells were incubated in medium A in presence or absence of PPARγ agonist for 4 days, changing the medium every 2 days. Adipogenesis was evaluated by analysis of the expression of adipocyte-specific markers and by staining of lipids with Oil Red O (Chawla & Lazar, 1994, Proc. Natl. Acad. Sci. USA 91, 1786-1790).\nRNA was isolated from 3T3-L1 cells by the acid guanidinium thiocyanate/phenol/chloroform method (Chomczynski & Sacchi, 1987, Anal. Biochem. 162, 156-159). Northern blot analysis of total cellular RNA was performed as described (Auwerx et al., 1989, Mol. Cell. Biol. 9, 2298-2302). Lipoprotein lipase (LPL), aP2 and 36B4 were used as probes (Lefebvre et al., 1997, Arterioscler.Thromb.Vasc.Biol. 17, 1756-1764; Laborda, 1991, Nucl. Acids Res. 19, 3998; Graves et al., 1992, Mol. Cell. Biol 12, 1202-1208)."}, "[2]": {"details": "Northern blot, extent close to rosiglitazone 10^-7 M"}},
  "data": [
    {"smiles": "CC(C)C[C@H](NC(=O)OCC1c2ccccc2-c2ccccc21)C(=O)O", "note": "[FMOC-L-Leu, FMOC-L-leucine]", "values": [
      {"measurement": "interaction between the PPARγ DE and p300Nt-GST", "setting": "PPARγ DE / p300Nt-GST", "result": "increased the interaction"},
      {"measurement": "formation of PPARγ DE/SRC-1-GST complexes", "setting": "[1]", "result": "induced the formation"},
      {"measurement": "interaction between TIF2 and the PPARγ DE", "setting": "PPARγ DE / TIF2-GST", "result": "not with FMOC-L-Leu"},
      {"measurement": "transactivation (luciferase) in the presence of TIF2", "setting": "BDGal4-hPPARγ DE / TIF2", "result": "no significant increase in transactivation"},
      {"measurement": "transactivation (luciferase) in the presence of SRC-1", "setting": "BDGal4-hPPARγ DE / SRC-1", "result": "much more pronounced and significant induction"},
      {"measurement": "transactivation (luciferase) in the presence of p300", "setting": "BDGal4-hPPARγ DE / p300", "result": "no significant increase in transactivation"},
      {"measurement": "neutral lipid accumulation (Oil Red O staining)", "setting": "3T3-L1 cells; 6 day incubation, rosiglitazone 10^-7 M", "result": "capable of inducing neutral lipid accumulation"},
      {"measurement": "LPL mRNA levels", "setting": "3T3-L1 cells; [2]", "result": "significantly stimulated"},
      {"measurement": "aP2 mRNA levels", "setting": "3T3-L1 cells; [2]", "result": "significantly stimulated"}
    ]}
  ]
}
